Data reported in ChEMBL document CHEMBL3734751, “Discovery of novel, potent and low-toxicity angiotensin II receptor type 1 (AT1) blockers: Design, synthesis and biological evaluation of 6-substituted aminocarbonyl benzimidazoles with a chiral center” (Eur J Med Chem, 2015).
Substitutions are numbered along the chain they refer to. Calls of active or inactive are those of the source. The calls are words filed in the database; no cut-off is given here.

Key:
[1] = molecular target: T1, Type-1 angiotensin II receptor (Homo sapiens, UniProt P30556); test: Displacement of [125I]Sar1Ile8-Ang2 from human AT1 receptor expressed in CHO-K1 cell membranes after 180 mins
T1 sequence (P30556 whole entry): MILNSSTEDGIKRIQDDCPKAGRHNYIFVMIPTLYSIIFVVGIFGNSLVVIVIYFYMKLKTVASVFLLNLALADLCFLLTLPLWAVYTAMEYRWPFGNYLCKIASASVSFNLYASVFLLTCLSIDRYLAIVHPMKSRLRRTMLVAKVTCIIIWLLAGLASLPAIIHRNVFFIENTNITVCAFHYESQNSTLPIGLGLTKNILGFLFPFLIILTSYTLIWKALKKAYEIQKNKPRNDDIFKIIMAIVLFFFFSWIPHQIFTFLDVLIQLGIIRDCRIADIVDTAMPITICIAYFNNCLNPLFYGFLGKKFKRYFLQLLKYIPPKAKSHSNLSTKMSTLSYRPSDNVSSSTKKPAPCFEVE

[2] = molecular target: T2, Type-1 angiotensin II receptor (Oryctolagus cuniculus, UniProt P34976); test: Antagonist activity against AT1 receptor in Japanese White rabbit aortic strips assessed as reduction in angiotension-2-induced contractile response after 60 mins by Schild's plot analysis; conditions: read-out: pA2 (converted)
T2 sequence (P34976 whole entry): T1 sequence (P30556 whole entry) with I2M, V49A, I254V, I270V, R272H, R311K, T349S, A353V

Rattus norvegicus [3] = test: Antihypertensive activity in spontaneously hypertensive rat assessed as decrease in mean blood pressure at 10 mg/kg, po within 24 hrs by tail-cuff plethysmography; format: functional, organism-based
[4] = Toxicity in Kunming mouse at 2 g/kg, po assessed as mortality after 2 weeks; format: organism-based; conditions: in vivo, 2000 mg/kg
[5] = Toxicity in Kunming mouse at 1.8 g/kg, po assessed as mortality after 2 weeks; format: organism-based; conditions: in vivo, 1800 mg/kg
[6] = Toxicity in Kunming mouse at 1.5 g/kg, po assessed as mortality after 2 weeks; format: organism-based; conditions: in vivo, 1500 mg/kg
[7] = Toxicity in Kunming mouse at 1.3 g/kg, po assessed as mortality after 2 weeks; format: organism-based; conditions: in vivo, 1300 mg/kg
[8] = Toxicity in orally dosed Kunming mouse assessed as mortality after 2 weeks; format: organism-based; conditions: in vivo, po
Rattus norvegicus [9] = test: Antihypertensive activity in spontaneously hypertensive rat assessed as mean blood pressure at 30 mg/kg, po by tail-cuff plethysmography; format: functional, organism-based

Row | SMILES | IC50 [1] [nM] | Kb [2] [nM] | also measured
1 | CCCc1nc2c(C)cc(C(=O)N[C@@H](CO)c3ccccc3)cc2n1Cc1ccc(-c2ccccc2-c2nnn[nH]2)cc1 | 293 | 15.8 | 
2 | CCCc1nc2c(C)cc(C(=O)N[C@H](COC)c3ccccc3)cc2n1Cc1ccc(-c2ccccc2-c2nnn[nH]2)cc1 | 157 | 3.16 | 
3 | CCCc1nc2c(C)cc(C(=O)NC[C@@H](C)c3ccccc3)cc2n1Cc1ccc(-c2ccccc2-c2nnn[nH]2)cc1 | 5 | 26.3 | 
4 | CCCSc1nc2c(C)cc(C(=O)NC[C@H](C)c3ccccc3)cc2n1Cc1ccc(-c2ccccc2C(=O)O)cc1 | 61.2 |  | 
5 | CCOc1nc2c(C)cc(C(=O)NC[C@H](C)c3ccccc3)cc2n1Cc1ccc(-c2ccccc2-c2nnn[nH]2)cc1 | 3.5 |  | 
6 | CCCc1nc2c(C)cc(C(=O)NC[C@H](O)c3ccccc3)cc2n1Cc1ccc(-c2ccccc2-c2nnn[nH]2)cc1 | 161 |  | 
7 | CCCCc1nc(Cl)c(CO)n1Cc1ccc(-c2ccccc2-c2nn[nH]n2)cc1 [LOSARTAN] |  |  | mortality at 336 h [4]: 90%; mortality at 336 h [5]: 80%; mortality at 336 h [6]: 30%; mortality at 336 h [7]: 10%; LD50 at 336 h [8]: 1570 mg/kg
8 | CCCc1nc2c(C)cc(C(=S)NC[C@@H](C)c3ccccc3)cc2n1Cc1ccc(-c2ccccc2C(=O)O)cc1 | 738 |  | 
9 | CSc1nc2c(C)cc(C(=O)NC[C@H](C)c3ccccc3)cc2n1Cc1ccc(-c2ccccc2C(=O)O)cc1 | 609 |  | 
10 | CCOc1nc2c(C)cc(C(=O)NC[C@H](C)c3ccccc3)cc2n1Cc1ccc(-c2ccccc2C(=O)O)cc1 | 7.3 |  | 
11 | CCCCc1nc(Cl)c(CO)n1Cc1ccc(-c2ccccc2-c2nnn[nH]2)cc1 |  |  | Activity (Rattus norvegicus [9]): Active
12 | CCCc1nc2c(C)cc(C(=O)N[C@@H](COC)c3ccccc3)cc2n1Cc1ccc(-c2ccccc2C(=O)O)cc1 | 70 | 3.16 | 
13 | CCCc1nc2c(C)cc(C(=O)NCC(C)c3ccccc3)cc2n1Cc1ccc(-c2ccccc2-c2nnn[nH]2)cc1 (racemic) | 16.7 | 3.09 | 
14 | CCCSc1nc2c(C)cc(C(=O)NC[C@@H](C)c3ccccc3)cc2n1Cc1ccc(-c2ccccc2C(=O)O)cc1 | 87.2 |  | 
15 | CCCc1nc2c(C)cc(C(=O)N[C@H](CO)c3ccccc3)cc2n1Cc1ccc(-c2ccccc2-c2nnn[nH]2)cc1 | 129 | 7.76 | 
16 | CCCc1nc2c(C)cc(C(=O)N[C@@H](COC)c3ccccc3)cc2n1Cc1ccc(-c2ccccc2-c2nnn[nH]2)cc1 | 38.9 | 6.92 | 
17 | CCCc1nc2c(C)cc(C(=O)NC[C@@H](C)c3ccccc3)cc2n1Cc1ccc(-c2ccccc2C(=O)O)cc1 | 40.4 | 1.86 | 

More lines, in order of falling IC50 [1], values ahead:

Row | IC50 [1] [nM] | Kb [2] [nM] | SMILES | also measured
18 | 1370 |  | CSc1nc2c(C)cc(C(=O)NC[C@@H](C)c3ccccc3)cc2n1Cc1ccc(-c2ccccc2C(=O)O)cc1 | 
19 | 1120 |  | CCCc1nc2c(C)cc(C(=S)NC[C@H](C)c3ccccc3)cc2n1Cc1ccc(-c2ccccc2C(=O)O)cc1 | 
20 | 788 |  | CCSc1nc2c(C)cc(C(=O)NC[C@@H](C)c3ccccc3)cc2n1Cc1ccc(-c2ccccc2C(=O)O)cc1 | 
21 | 699 |  | CSc1nc2c(C)cc(C(=O)NC[C@@H](C)c3ccccc3)cc2n1Cc1ccc(-c2ccccc2-c2nnn[nH]2)cc1 | 
22 | 671 |  | CSc1nc2c(C)cc(C(=O)NC[C@H](C)c3ccccc3)cc2n1Cc1ccc(-c2ccccc2-c2nnn[nH]2)cc1 | 
23 | 622 |  | CCSc1nc2c(C)cc(C(=O)NC[C@@H](C)c3ccccc3)cc2n1Cc1ccc(-c2ccccc2-c2nnn[nH]2)cc1 | 
24 | 503 |  | CCSc1nc2c(C)cc(C(=O)NC[C@H](C)c3ccccc3)cc2n1Cc1ccc(-c2ccccc2-c2nnn[nH]2)cc1 | 
25 | 496 | 7.41 | CCCc1nc2c(C)cc(C(=O)N[C@@H](CO)c3ccccc3)cc2n1Cc1ccc(-c2ccccc2C(=O)O)cc1 | 
26 | 487 |  | CCSc1nc2c(C)cc(C(=O)NC[C@H](C)c3ccccc3)cc2n1Cc1ccc(-c2ccccc2C(=O)O)cc1 | 
27 | 366 |  | CCCc1nc2c(C)cc(C(=S)NC[C@H](C)c3ccccc3)cc2n1Cc1ccc(-c2ccccc2-c2nnn[nH]2)cc1 | 
28 | 343 |  | CCCc1nc2c(C)cc(C(=S)NC[C@@H](C)c3ccccc3)cc2n1Cc1ccc(-c2ccccc2-c2nnn[nH]2)cc1 | 
29 | 214 | 3.98 | CCCc1nc2c(C)cc(C(=O)N[C@H](CO)c3ccccc3)cc2n1Cc1ccc(-c2ccccc2C(=O)O)cc1 | 
30 | 106 |  | CCCc1nc2c(C)cc(C(=O)NC[C@@H](O)c3ccccc3)cc2n1Cc1ccc(-c2ccccc2-c2nnn[nH]2)cc1 | 
31 | 104 |  | CCCc1nc2c(C)cc(C(=O)NC[C@@H](O)c3ccccc3)cc2n1Cc1ccc(-c2ccccc2C(=O)O)cc1 | 
32 | 93.9 |  | CCCc1nc2c(C)cc(C(=O)NC[C@H](O)c3ccccc3)cc2n1Cc1ccc(-c2ccccc2C(=O)O)cc1 | 
33 | 90.5 |  | CCCc1nc2c(C)cc(C(=O)N[C@H](C)c3ccccc3)cc2n1Cc1ccc(-c2ccccc2C(=O)O)cc1 | 
34 | 57.9 | 3.63 | CCCc1nc2c(C)cc(C(=O)N[C@H](COC)c3ccccc3)cc2n1Cc1ccc(-c2ccccc2C(=O)O)cc1 | 
35 | 57.4 |  | CCOc1nc2c(C)cc(C(=O)NC[C@@H](C)c3ccccc3)cc2n1Cc1ccc(-c2ccccc2C(=O)O)cc1 | 
36 | 23.1 | 8.13 | CCCc1nc2c(C)cc(C(=O)NCCc3ccccc3)cc2n1Cc1ccc(-c2ccccc2C(=O)O)cc1 | 
37 | 23 | 5.62 | CCCc1nc2c(C)cc(C(=O)NC[C@H](C)c3ccccc3)cc2n1Cc1ccc(-c2ccccc2C(=O)O)cc1 | 
38 | 19.5 |  | CCCc1nc2c(C)cc(C(=O)N[C@@H](C)c3ccccc3)cc2n1Cc1ccc(-c2ccccc2C(=O)O)cc1 | Activity (Rattus norvegicus [3]): inactive
39 | 6.3 |  | CCOc1nc2c(C)cc(C(=O)NC[C@@H](C)c3ccccc3)cc2n1Cc1ccc(-c2ccccc2-c2nnn[nH]2)cc1 | 
40 | 2.7 |  | CCCSc1nc2c(C)cc(C(=O)NC[C@@H](C)c3ccccc3)cc2n1Cc1ccc(-c2ccccc2-c2nnn[nH]2)cc1 | Activity (Rattus norvegicus [3]): inactive
41 | 1.4 |  | CCCSc1nc2c(C)cc(C(=O)NC[C@H](C)c3ccccc3)cc2n1Cc1ccc(-c2ccccc2-c2nnn[nH]2)cc1 | Activity (Rattus norvegicus [3]): inactive
